PubChem BioAssay (NCI)
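Interpolation was linear, between the two tested concentrations surrounding the appropriate level; five concentrations were tested over 48 hours in 96-well plates. TGI denotes the concentration required for complete inhibition of growth.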

Assays:
Experiment in all cases: NCI tumour cell line growth inhibition, 48 h
COLO 205 colon = test system: COLO 205 colon
RPMI-8226 leukemia = test system: RPMI-8226 leukemia
MDA-N = test system: MDA-N
HCT-15 colon = test system: HCT-15 colon
CAKI-1 renal = test system: CAKI-1 renal
HOP-92 NSCLC = test system: HOP-92 NSCLC
HCT-116 colon = test system: HCT-116 colon
OVCAR-3 ovarian = test system: OVCAR-3 ovarian
SNB-75 CNS = test system: SNB-75 CNS
SK-MEL-2 melanoma = test system: SK-MEL-2 melanoma
BT-549 breast = test system: BT-549 breast
MDA-MB-435 = test system: MDA-MB-435
NCI-H23 lung = test system: NCI-H23 lung
SR leukemia = test system: SR leukemia
NCI-H460 lung = test system: NCI-H460 lung
K-562 leukemia = test system: K-562 leukemia
HOP-62 NSCLC = test system: HOP-62 NSCLC
HL-60(TB) leukemia = test system: HL-60(TB) leukemia
PC-3 prostate = test system: PC-3 prostate
SN12C renal = test system: SN12C renal
MOLT-4 leukemia = test system: MOLT-4 leukemia
CCRF-CEM leukemia = test system: CCRF-CEM leukemia
MCF7 breast = test system: MCF7 breast
UACC-62 melanoma = test system: UACC-62 melanoma
MDA-MB-231 breast = test system: MDA-MB-231 breast
HS 578T breast = test system: HS 578T breast
T-47D breast = test system: T-47D breast
MALME-3M melanoma = test system: MALME-3M melanoma
NCI-H522 lung = test system: NCI-H522 lung
SK-MEL-5 melanoma = test system: SK-MEL-5 melanoma
A498 renal = test system: A498 renal
SNB-19 CNS = test system: SNB-19 CNS
U251 CNS = test system: U251 CNS
IGROV1 ovarian = test system: IGROV1 ovarian
KM12 colon = test system: KM12 colon
HCC-2998 colon = test system: HCC-2998 colon
M14 melanoma = test system: M14 melanoma
SK-OV-3 ovarian = test system: SK-OV-3 ovarian
NCI/ADR-RES ovarian = test system: NCI/ADR-RES ovarian
HT29 colon = test system: HT29 colon
NCI-H226 lung = test system: NCI-H226 lung
UO-31 renal = test system: UO-31 renal
OVCAR-8 ovarian = test system: OVCAR-8 ovarian
DU-145 prostate = test system: DU-145 prostate
SF-295 CNS = test system: SF-295 CNS
OVCAR-5 ovarian = test system: OVCAR-5 ovarian
A549 NSCLC = test system: A549 NSCLC
UACC-257 melanoma = test system: UACC-257 melanoma
LOX IMVI melanoma = test system: LOX IMVI melanoma
SF-539 CNS = test system: SF-539 CNS
OVCAR-4 ovarian = test system: OVCAR-4 ovarian
786-0 renal = test system: 786-0 renal
ACHN renal = test system: ACHN renal
EKVX NSCLC = test system: EKVX NSCLC
SF-268 CNS = test system: SF-268 CNS
SW-620 colon = test system: SW-620 colon
SK-MEL-28 melanoma = test system: SK-MEL-28 melanoma
RXF 393 renal = test system: RXF 393 renal
TK-10 renal = test system: TK-10 renal

Measured: TGI

CCCCOc1ccc2c(c1)CC[C@@H]1[C@@H]2CC[C@]2(C)C(=O)N(CCCC)C(=O)C[C@@H]12
> 100 µM: COLO 205 colon | RPMI-8226 leukemia | MDA-N | HCT-15 colon | CAKI-1 renal | HOP-92 NSCLC | HCT-116 colon | OVCAR-3 ovarian | SNB-75 CNS | SK-MEL-2 melanoma | BT-549 breast | MDA-MB-435 | NCI-H23 lung | SR leukemia | NCI-H460 lung | K-562 leukemia | HOP-62 NSCLC | HL-60(TB) leukemia | PC-3 prostate | SN12C renal | MOLT-4 leukemia | CCRF-CEM leukemia | MCF7 breast | UACC-62 melanoma | MDA-MB-231 breast | HS 578T breast | T-47D breast | MALME-3M melanoma | NCI-H522 lung | SK-MEL-5 melanoma | A498 renal | SNB-19 CNS | U251 CNS | IGROV1 ovarian | KM12 colon | HCC-2998 colon | M14 melanoma | SK-OV-3 ovarian | NCI/ADR-RES ovarian | HT29 colon | NCI-H226 lung | UO-31 renal | OVCAR-8 ovarian | DU-145 prostate | SF-295 CNS | OVCAR-5 ovarian

O=C(N[C@H]1CCC[C@H]1C(=O)Nc1ccc(C(F)(F)F)cc1)OCc1ccccc1
> 100 µM: COLO 205 colon | RPMI-8226 leukemia | MDA-N | A549 NSCLC | HCT-15 colon | CAKI-1 renal | HOP-92 NSCLC | HCT-116 colon | UACC-257 melanoma | OVCAR-3 ovarian | LOX IMVI melanoma | SK-MEL-2 melanoma | BT-549 breast | MDA-MB-435 | NCI-H23 lung | SR leukemia | NCI-H460 lung | K-562 leukemia | HOP-62 NSCLC | HL-60(TB) leukemia | PC-3 prostate | SN12C renal | SF-539 CNS | MOLT-4 leukemia | CCRF-CEM leukemia | MCF7 breast | UACC-62 melanoma | OVCAR-4 ovarian | MDA-MB-231 breast | 786-0 renal | HS 578T breast | T-47D breast | ACHN renal | MALME-3M melanoma | NCI-H522 lung | EKVX NSCLC | SK-MEL-5 melanoma | A498 renal | SNB-19 CNS | U251 CNS | SF-268 CNS | SW-620 colon | IGROV1 ovarian | KM12 colon | HCC-2998 colon | M14 melanoma | SK-OV-3 ovarian | SK-MEL-28 melanoma | NCI/ADR-RES ovarian | HT29 colon | NCI-H226 lung | UO-31 renal | OVCAR-8 ovarian | RXF 393 renal | DU-145 prostate | TK-10 renal | SF-295 CNS | OVCAR-5 ovarian
